Test results taken from ChEMBL document CHEMBL1159141, “Synthesis and biology of substituted 3-phenyl taxol analogues” (1994).

Tests used:
[1] = tested on: B16; assay: In vitro concentration which causes 50% inhibition of proliferation of B16 melanoma cells, activity relative to taxol (ED50=1); format: functional, Mus musculus
[2] = molecular target: Tubulin alpha chain (Sus scrofa) (UniProt P02550); assay: In vitro concentration which causes polymerization of 50% of the tubulin, activity relative to taxol (ED50=1); format: functional
Chain of Tubulin alpha chain (Sus scrofa) (P02550 whole entry, looked up): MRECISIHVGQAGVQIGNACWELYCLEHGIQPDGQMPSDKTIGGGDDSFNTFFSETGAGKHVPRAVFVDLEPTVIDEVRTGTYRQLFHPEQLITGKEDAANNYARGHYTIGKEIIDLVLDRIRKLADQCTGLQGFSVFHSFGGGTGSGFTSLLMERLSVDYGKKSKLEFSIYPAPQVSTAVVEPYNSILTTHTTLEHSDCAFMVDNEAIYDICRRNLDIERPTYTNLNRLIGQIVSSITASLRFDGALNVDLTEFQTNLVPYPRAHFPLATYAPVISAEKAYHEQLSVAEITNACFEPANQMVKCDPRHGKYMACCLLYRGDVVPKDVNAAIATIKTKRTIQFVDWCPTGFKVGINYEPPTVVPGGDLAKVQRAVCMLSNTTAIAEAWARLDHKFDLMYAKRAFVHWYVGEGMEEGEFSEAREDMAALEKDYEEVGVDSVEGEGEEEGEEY

[3] = tested on: HCT-116; assay: In vitro concentration which causes 50% inhibition against HCT116 cell line, activity relative to taxol (ED50=1); format: functional, Homo sapiens

SMILES | ED50 ratio [1] | ED50 ratio [2] | ED50 ratio [3]
CC(=O)O[C@H]1C(=O)[C@@]2(C)[C@H]([C@H](OC(=O)c3ccccc3)[C@]3(O)C[C@H](OC(=O)[C@H](O)[C@H](NC(=O)c4ccccc4)c4ccc(C)cc4)C(C)=C1C3(C)C)[C@]1(OC(C)=O)CO[C@@H]1C[C@@H]2O | 3 | 2.4 | –
CC(=O)O[C@H]1C(=O)[C@@]2(C)[C@H]([C@H](OC(=O)c3ccccc3)[C@]3(O)C[C@H](OC(=O)[C@H](O)[C@H](NC(=O)c4ccccc4)c4cccc(N(C)C)c4)C(C)=C1C3(C)C)[C@]1(OC(C)=O)CO[C@@H]1C[C@@H]2O | 5.8 | 4.6 | –
CC(=O)O[C@H]1C(=O)[C@@]2(C)[C@H]([C@H](OC(=O)c3ccccc3)[C@]3(O)C[C@H](OC(=O)[C@H](O)[C@H](NC(=O)c4ccccc4)c4ccc(Cl)c(Cl)c4)C(C)=C1C3(C)C)[C@]1(OC(C)=O)CO[C@@H]1C[C@@H]2O | 40 | 7.1 | –
COc1ccc([C@@H](NC(=O)c2ccccc2)[C@@H](O)C(=O)O[C@H]2C[C@@]3(O)[C@@H](OC(=O)c4ccccc4)[C@@H]4[C@]5(OC(C)=O)CO[C@@H]5C[C@H](O)[C@@]4(C)C(=O)[C@H](OC(C)=O)C(=C2C)C3(C)C)cc1 | 1 | 0.5 | –
CC(=O)O[C@H]1C(=O)[C@@]2(C)[C@H]([C@H](OC(=O)c3ccccc3)[C@]3(O)C[C@H](OC(=O)[C@H](O)[C@H](NC(=O)c4ccccc4)c4ccc(Cl)cc4)C(C)=C1C3(C)C)[C@]1(OC(C)=O)CO[C@@H]1C[C@@H]2O | 2.2 | 1.9 | –
CC(=O)O[C@H]1C(=O)[C@@]2(C)[C@H]([C@H](OC(=O)c3ccccc3)[C@]3(O)C[C@H](OC(=O)[C@H](O)[C@H](NC(=O)c4ccccc4)c4cccc(Cl)c4)C(C)=C1C3(C)C)[C@]1(OC(C)=O)CO[C@@H]1C[C@@H]2O | 6.7 | 4.4 | –
CC(=O)O[C@H]1C(=O)[C@@]2(C)[C@H]([C@H](OC(=O)c3ccccc3)[C@]3(O)C[C@H](OC(=O)[C@H](O)[C@@H](NC(=O)c4ccccc4)c4ccccc4)C(C)=C1C3(C)C)[C@]1(OC(C)=O)CO[C@@H]1C[C@@H]2O [PACLITAXEL] | 1 | 1 | –
CC(=O)O[C@H]1C(=O)[C@@]2(C)[C@H]([C@H](OC(=O)c3ccccc3)[C@]3(O)C[C@H](OC(=O)[C@H](O)[C@H](NC(=O)c4ccccc4)c4ccc(F)cc4)C(C)=C1C3(C)C)[C@]1(OC(C)=O)CO[C@@H]1C[C@@H]2O | 1.2 | 1.1 | –
CC(=O)O[C@H]1C(=O)[C@@]2(C)[C@H]([C@H](OC(=O)c3ccccc3)[C@]3(O)C[C@H](OC(=O)[C@H](O)[C@H](NC(=O)c4ccccc4)c4ccc([N+](=O)[O-])cc4)C(C)=C1C3(C)C)[C@]1(OC(C)=O)CO[C@@H]1C[C@@H]2O | – | 1.1 | 35
CC(=O)O[C@H]1C(=O)[C@@]2(C)[C@H]([C@H](OC(=O)c3ccccc3)[C@]3(O)C[C@H](OC(=O)[C@H](O)[C@H](NC(=O)c4ccccc4)c4ccccc4C)C(C)=C1C3(C)C)[C@]1(OC(C)=O)CO[C@@H]1C[C@@H]2O | >33 | 5.1 | –
